Where a name gives a salt, the structure may show the parent alone.
Experiments:
[1] = test system: MRSA biofilm-infected porcine skin wound; assay: Ex vivo anti-biofilm efficacy, standard plate counting assay; type: cell-based, Methicillin-resistant S. aureus (MRSA) USA300
Experimental: Same as previous tests, an ex vivo MRSA biofilm-infected porcine skin wound model was used here. First the biofilm treatment efficacy was tested when different current intensities were used with a fixed VAN loading concentration at 1 mg mL^−1. After a single treatment for 1 hour, wound tissues were incubated for 24 hours in a 37° C. incubator to allow VAN to take effect. After incubation, tissue samples were collected and evaluated for bacterial count using the standard plate counting assay for MRSA colony. […] Treating the biofilm with no current for 1 hour (only VAN diffusion) or a low current of 0.5 mA cm^−2 for 1 hour induced a minimal MRSA count reduction to 10^9.8 CFU g^−1 and 10^9.6 CFU g^−1, respectively. When 19 mA cm^−2, 38 mA cm^−2, and 75 mA cm^−2 were applied, MRSA count was further reduced to 10^8.6 CFU g^−1, 10^8.3 CFU g^−1 and 10^7.6 CFU g^−1, respectively (see FIGS. 5A and 5F). […] Because 75 mA cm^−2 had better anti-biofilm efficacy than other conditions, it was selected for the following tests.
The fetal pig skin samples (approximately 30×30 mm) were immersed in 10% (v/v) bleach for 5 minutes after hair removal. Then, skin samples were sterilized in 70% ethanol for 30 minutes. The surface of skin sample was further cleaned by 10% povidone-iodine and 70% isopropanol to prevent contamination. A 6-mm disposable biopsy punch was used to create an excisional wound. Samples were put into sterile 10-cm petri-dishes filled with sterile PBS (6 mL). The wound was then inoculated with 1×10^8 CFU mL^−1 MRSA bacteria solution (20 μL). The bacteria were allowed to grow in a 37° C. Heratherm™ compact microbiological incubator (ThermoFischer Scientific™, Waltham, Mass., USA) for 48 hours to form mature biofilms.
The HIC-based biofilm treatment system 100 embodiment shown in FIG. 18 was used to test electrical debridement treatment of high-intensity current on ex vivo MRSA biofilm infected skin wounds. The MRSA biofilm infected skin wound was sandwiched between anode and cathode HIC-based devices (i.e., the working device 104 and the counter device 106). To evaluate the anti-biofilm effect of high current intensity only, PBS (5 mL) was filled in both drug/buffer chamber 114 and PBS chamber 122 and then 0.5 mA cm^−2, 19 mA cm^−2, 38 mA cm^−2, and 75 mA cm^−2 was applied for 1 hour, respectively. The device/skin wound contact area was 0.502 cm^2. Skin samples were collected by 8-mm biopsy punch immediately after test or at 24 hours after testing. To evaluate the biofilm thickness before and after different treatments, samples were embedded in tissue freezing medium (OCT) and sectioned at 8 μm. After being imaged in microscope, the thickness of biofilms after different treatments were measured using ImageJ software. To evaluate the colony-forming unit (CFU) counts per gram of MRSA from infected skin wounds, samples were homogenized in PBS (10 mL) and diluted with PBS, and then transferred to standard plate counting assay. The bactericidal efficacy was calculated as follows:
The HIC-based biofilm treatment system 100 embodiment shown in FIG. 18 was used to evaluate combined biofilm treatment efficacy of electrical debridement and VAN delivery. To evaluate the anti-biofilm treatment efficacy of current intensity, 0 mA cm^−2 (passive diffusion) to 75 mA cm^−2 was applied on the HIC-based biofilm treatment system 100 with 1 mg mL^−1 VAN loaded in HIC-based working device 104, respectively. […] To further enhance the anti-biofilm efficacy of electrical debridement and high concentration delivery of VAN, two treatments were applied, named protocol #1 and protocol #2. Protocol #1 applied two treatments (treatment: 75 mA cm^−2 for 1 hour, 1 mg mL^−1 VAN loaded in HIC-based working device 104) separated by 6 hours. Protocol #2 applied two treatments (treatment same as Protocol #1) separated by 24 hours. CFU was counted 24 hours after last treatment using the standard spread counting assay. The bactericidal efficacy was calculated accordingly. […]

[2] = test system: S. aureus persister cells; settings: even at 100×MIC; cited from earlier work
C. difficle = settings: cited from earlier work
HDFa cells = assay: Cell toxicity of high concentration of antibiotics, LIVE/DEAD stain; type: cell-based, human; settings: 4.5 mg mL^−1 VAN, 48 hour incubation
Experimental: (§1) To evaluate the cell toxicity of the high concentration of antibiotics, HaCaT cells and HDFa cells were used. 2×10^4 HaCat cells and 2×10^3 HDFa cells were seeded in each well of a 96-well plate. After being cultured in an incubator under 37° C. and 5% CO2 for 24 hours, 4.5 mg mL^−1 VAN and 20 mg mL^−1 DAP were added to the culture media, respectively. Both HaCat cells and HDFa cells were treated by VAN for two days, and exposed to DAP for one day, respectively. The cell toxicity of the two cells at the end time points were evaluated by LIVE/DEAD stain and visualized by a confocal laser scanning microscope (CLSM, LSM 710, Zeiss, Germany).

HaCaT cells = assay: as above; type: cell-based, human; settings: 4.5 mg mL^−1 VAN, 48 hour incubation
Experimental: as §1

[3] = 75 mA cm^−2 1 hour, 1 mg mL^−1 VAN, 24 hours after

**Q.** Which results are given for CN[C@H](CC(C)C)C(=O)N[C@H]1C(=O)N[C@@H](CC(N)=O)C(=O)N[C@H]2C(=O)N[C@H]3C(=O)N[C@H](C(=O)N[C@H](C(=O)O)c4cc(O)cc(O)c4-c4cc3ccc4O)[C@H](O)c3ccc(c(Cl)c3)Oc3cc2cc(c3O[C@@H]2O[C@H](CO)[C@@H](O)[C@H](O)[C@H]2O[C@H]2C[C@](C)(N)[C@H](O)[C@H](C)O2)Oc2ccc(cc2Cl)[C@H]1O [VAN, Vancomycin hydrochloride]?
**A.** bactericidal efficacy ([1]; 0.5 mA cm^−2 1 hour, 1 mg mL^−1 VAN, 24 hours after): 4.4±2.76 times; bactericidal efficacy ([1]; 19 mA cm^−2 1 hour, 1 mg mL^−1 VAN, 24 hours after): 57.8±50.30 times; bactericidal efficacy ([1]; 38 mA cm^−2 1 hour, 1 mg mL^−1 VAN, 24 hours after): 81.4±13.34 times; bactericidal efficacy [1, 3]: 452.8±115.32 times; bactericidal rate [1, 3]: 99.8%; bactericidal efficacy ([1]; 75 mA cm^−2 1 hour, 3 mg mL^−1 VAN loading): 112.6±13.58 times; bactericidal efficacy ([1]; 75 mA cm^−2 1 hour, 5 mg mL^−1 VAN loading): 5.1±3.80 times; bactericidal efficacy ([1]; 75 mA cm^−2 1 hour, 10 mg mL^−1 VAN loading): 9.7±2.92 times; bactericidal efficacy ([1]; passive diffusion 1 hour, 1 mg mL^−1 VAN, 24 hours after): 2.7±2.06 times; MRSA bacterial count reduction in wound tissue ([1]; single 1 hour treatment, 75 mA cm^−2, 1 mg mL^−1 VAN): 2.6 login scales; killing of S. aureus persister cells [2]: not capable of killing; concentration at which antibacterial activity starts to decrease (paradoxical effect) (C. difficle): 64 ×MIC; viability of skin cells (HDFa cells): not affected; viability of skin cells (HaCaT cells): not affected
